# Measurements taken from ChEMBL document CHEMBL5584328, “Integrating computational and experimental chemical biology revealed variable anticancer activities of phosphodiesterase isoenzyme 5 inhibitors (PDE5i) in lung cancer” (RSC Med Chem, 2024).
# Activity calls are given as the source filed them. The calls are words filed in the database; no cut-off is given here.
# Columns and labels:
# [1] = tested on: A549; experiment: Antiproliferative activity against human A549 cells measured after 24 hrs by MTT assay; type: functional, cell-based; conditions: for IC50: A549, 24 h
# [2] = tested on: A549; experiment: Antiproliferative activity against human A549 cells measured after 48 hrs by MTT assay; type: functional, cell-based; conditions: for IC50: A549, 48 h
# [3] = tested on: A549; experiment: Antiproliferative activity against human A549 cells measured after 72 hrs by MTT assay; type: functional, cell-based; conditions: for IC50: A549, 72 h
# [4] = tested on: NCI-H1299; experiment: Antiproliferative activity against human NCI-H1299 cells measured after 24 hrs by MTT assay; type: functional, cell-based; conditions: for IC50: NCI-H1299, 24 h
# [5] = tested on: NCI-H1299; experiment: Antiproliferative activity against human NCI-H1299 cells measured after 48 hrs by MTT assay; type: functional, cell-based; conditions: for IC50: NCI-H1299, 48 h
# [6] = tested on: NCI-H1299; experiment: Antiproliferative activity against human NCI-H1299 cells measured after 72 hrs by MTT assay; type: functional, cell-based; conditions: for IC50: NCI-H1299, 72 h
# [7] = tested on: NCI-H661; experiment: Antiproliferative activity against human NCI-H661 cells measured after 24 hrs by MTT assay; type: functional, cell-based; conditions: for IC50: NCI-H661, 24 h
# [8] = tested on: NCI-H661; experiment: Antiproliferative activity against human NCI-H661 cells measured after 48 hrs by MTT assay; type: functional, cell-based; conditions: for IC50: NCI-H661, 48 h
# [9] = tested on: NCI-H661; experiment: Antiproliferative activity against human NCI-H661 cells measured after 72 hrs by MTT assay; type: functional, cell-based; conditions: for IC50: NCI-H661, 72 h
# [10] = tested on: A549; experiment: Antiproliferative activity against human A549 cells by MTT assay; type: functional, cell-based; conditions: time 24-72 hrs, TDE = time-dependent effect
# [11] = tested on: NCI-H1299; experiment: Antiproliferative activity against human NCI-H1299 cells by MTT assay; type: functional, cell-based; conditions: time 24-72 hrs, TDE = time-dependent effect
# [12] = tested on: NCI-H661; experiment: Antiproliferative activity against human NCI-H661 cells by MTT assay; type: functional, cell-based; conditions: time 24-72 hrs, TDE = time-dependent effect
# [13] = tested on: A549; experiment: Potentiation of cisplatin-induced cytotoxicity against human A549 cells assessed as combination index at 1:7 ratio of cisplatin to compound measured after 48 hrs by MTT assay; type: functional
# [14] = tested on: NCI-H1299; experiment: Potentiation of cisplatin-induced cytotoxicity against human NCI-H1299 cells assessed as combination index at 1:9 ratio of cisplatin to compound measured after 48 hrs by MTT assay; type: functional
# [15] = tested on: NCI-H661; experiment: Potentiation of cisplatin-induced cytotoxicity against human NCI-H661 cells assessed as combination index at 1:9 ratio of cisplatin to compound measured after 48 hrs by MTT assay; type: functional
# [16] = tested on: A549; experiment: Potentiation of cisplatin-induced cytotoxicity against human A549 cells assessed as fold reduction in cisplatin IC50 at 1:7 ratio of cisplatin to compound measured after 48 hrs by MTT assay relative to cisplatin alone; type: functional
# [17] = tested on: NCI-H1299; experiment: Potentiation of cisplatin-induced cytotoxicity against human NCI-H1299 cells assessed as fold reduction in cisplatin IC50 at 1:9 ratio of cisplatin to compound measured after 48 hrs by MTT assay relative to cisplatin alone; type: functional
# [18] = tested on: NCI-H661; experiment: Potentiation of cisplatin-induced cytotoxicity against human NCI-H661 cells assessed as fold reduction in cisplatin IC50 at 1:9 ratio of cisplatin to compound measured after 48 hrs by MTT assay relative to cisplatin alone; type: functional
# [19] = tested on: A549; experiment: Potentiation of raloxifene-induced cytotoxicity against human A549 cells assessed as combination index at 1:4 ratio of raloxifene to compound measured after 48 hrs by MTT assay; type: functional
# [20] = tested on: NCI-H1299; experiment: Potentiation of raloxifene-induced cytotoxicity against human NCI-H1299 cells assessed as combination index at 1:5 ratio of raloxifene to compound measured after 48 hrs by MTT assay; type: functional
# [21] = tested on: NCI-H661; experiment: Potentiation of raloxifene-induced cytotoxicity against human NCI-H661 cells assessed as combination index at 1:5 ratio of raloxifene to compound measured after 48 hrs by MTT assay; type: functional
# [22] = tested on: A549; experiment: Potentiation of raloxifene-induced cytotoxicity against human A549 cells assessed as fold reduction in raloxifene IC50 at 1:4 ratio of raloxifene to compound measured after 48 hrs by MTT assay relative to raloxifene alone; type: functional
# [23] = tested on: NCI-H1299; experiment: Potentiation of raloxifene-induced cytotoxicity against human NCI-H1299 cells assessed as fold reduction in raloxifene IC50 at 1:5 ratio of raloxifene to compound measured after 48 hrs by MTT assay relative to raloxifene alone; type: functional
# [24] = tested on: NCI-H661; experiment: Potentiation of raloxifene-induced cytotoxicity against human NCI-H661 cells assessed as fold reduction in raloxifene IC50 at 1:5 ratio of raloxifene to compound measured after 48 hrs by MTT assay relative to raloxifene alone; type: functional
# [25] = tested on: NCI-H1299; experiment: Antimigratory activity against human NCI-H1299 cells assessed as reduction in wound closure measured after 24 hrs by wound healing assay; type: functional, cell-based
# [26] = tested on: A549; experiment: Inhibition of colony formation in human A549 cells assessed as reduction in number of colonies at 85 to 170 uM measured after 48 hrs by colony formation assay; type: functional, cell-based; conditions: dose 85-170 µM
# [27] = tested on: A549; experiment: Inhibition of colony formation in human A549 cells assessed as reduction in size of colonies at 85 to 170 uM measured after 48 hrs by colony formation assay; type: functional, cell-based; conditions: dose 85-170 µM
# [28] = tested on: A549; experiment: Induction of apoptosis in human A549 cells assessed as increase in apoptotic cells at 340 uM measured after 48 hrs by Annexin V-FITC/PI staining based flow cytometry relative to control; type: functional
# [29] = tested on: A549; experiment: Cell cycle arrest in human A549 cells assessed as increase in cell population at G0/G1 phase at 85 uM measured after 48 hrs by propidium iodide staining based flow cytometry; type: functional
# [30] = tested on: A549; experiment: Reduction in PDE5 gene expression in human A549 cells at 0.1 IC50 measured after 48 hrs by qRT-PCR analysis; type: functional, cell-based
# [31] = tested on: A549; experiment: Reduction in Bcl-2 gene expression in human A549 cells at 0.1 IC50 measured after 48 hrs by qRT-PCR analysis; type: functional, cell-based
# [32] = tested on: A549; experiment: Reduction in PDE5 protein expression in human A549 cells at 0.25 to 0.5 IC50 measured after 48 hrs by Western blot analysis; type: functional, cell-based
# [33] = tested on: A549; experiment: Potentiation of cisplatin-induced cytotoxicity against human A549 cells assessed as combination index at 1:4 ratio of cisplatin to compound measured after 48 hrs by MTT assay; type: functional
# [34] = tested on: NCI-H1299; experiment: Potentiation of cisplatin-induced cytotoxicity against human NCI-H1299 cells assessed as combination index at 1:35 ratio of cisplatin to compound measured after 48 hrs by MTT assay; type: functional
# [35] = tested on: NCI-H661; experiment: Potentiation of cisplatin-induced cytotoxicity against human NCI-H661 cells assessed as combination index at 1:14 ratio of cisplatin to compound measured after 48 hrs by MTT assay; type: functional
# [36] = tested on: A549; experiment: Potentiation of cisplatin-induced cytotoxicity against human A549 cells assessed as fold reduction in cisplatin IC50 at 1:4 ratio of cisplatin to compound measured after 48 hrs by MTT assay relative to cisplatin alone; type: functional
# [37] = tested on: NCI-H1299; experiment: Potentiation of cisplatin-induced cytotoxicity against human NCI-H1299 cells assessed as fold reduction in cisplatin IC50 at 1:35 ratio of cisplatin to compound measured after 48 hrs by MTT assay relative to cisplatin alone; type: functional
# [38] = tested on: NCI-H661; experiment: Potentiation of cisplatin-induced cytotoxicity against human NCI-H661 cells assessed as fold reduction in cisplatin IC50 at 1:14 ratio of cisplatin to compound measured after 48 hrs by MTT assay relative to cisplatin alone; type: functional
# [39] = tested on: A549; experiment: Potentiation of raloxifene-induced cytotoxicity against human A549 cells assessed as combination index at 1:2 ratio of raloxifene to compound measured after 48 hrs by MTT assay; type: functional
# [40] = tested on: NCI-H1299; experiment: Potentiation of raloxifene-induced cytotoxicity against human NCI-H1299 cells assessed as combination index at 1:20 ratio of raloxifene to compound measured after 48 hrs by MTT assay; type: functional
# [41] = tested on: NCI-H661; experiment: Potentiation of raloxifene-induced cytotoxicity against human NCI-H661 cells assessed as combination index at 1:7 ratio of raloxifene to compound measured after 48 hrs by MTT assay; type: functional
# [42] = tested on: A549; experiment: Potentiation of raloxifene-induced cytotoxicity against human A549 cells assessed as fold reduction in raloxifene IC50 at 1:2 ratio of raloxifene to compound measured after 48 hrs by MTT assay relative to raloxifene alone; type: functional
# [43] = tested on: NCI-H1299; experiment: Potentiation of raloxifene-induced cytotoxicity against human NCI-H1299 cells assessed as fold reduction in raloxifene IC50 at 1:20 ratio of raloxifene to compound measured after 48 hrs by MTT assay relative to raloxifene alone; type: functional
# [44] = tested on: NCI-H661; experiment: Potentiation of raloxifene-induced cytotoxicity against human NCI-H661 cells assessed as fold reduction in raloxifene IC50 at 1:7 ratio of raloxifene to compound measured after 48 hrs by MTT assay relative to raloxifene alone; type: functional
# [45] = tested on: A549; experiment: Inhibition of colony formation in human A549 cells assessed as reduction in number of colonies at 52.5 to 105 uM measured after 48 hrs by colony formation assay; type: functional, cell-based; conditions: dose 52.5-105 µM
# [46] = tested on: A549; experiment: Inhibition of colony formation in human A549 cells assessed as reduction in size of colonies at 52.5 to 105 uM measured after 48 hrs by colony formation assay; type: functional, cell-based; conditions: dose 52.5-105 µM
# [47] = tested on: A549; experiment: Induction of apoptosis in human A549 cells assessed as increase in apoptotic cells at 210 uM measured after 48 hrs by Annexin V-FITC/PI staining based flow cytometry relative to control; type: functional
# [48] = tested on: A549; experiment: Cell cycle arrest in human A549 cells assessed as increase in cell population at G2 phase at 52.5 uM measured after 48 hrs by propidium iodide staining based flow cytometry; type: functional
smiles,measurement,setting,value
COc1ccc(CNc2nc(N3CCC[C@H]3CO)ncc2C(=O)NCc2ncccn2)cc1Cl [AVANAFIL],Activity,[1],Dose-Dependent Effect
same,IC50,[1],127 µM
same,Activity,[2],Dose-Dependent Effect
same,IC50,[2],170 µM
same,Activity,[3],Dose-Dependent Effect
same,IC50,[3],131 µM
same,Activity,[4],Dose-Dependent Effect
same,IC50,[4],162 µM
same,Activity,[5],Dose-Dependent Effect
same,IC50,[5],184 µM
same,Activity,[6],Dose-Dependent Effect
same,IC50,[6],169 µM
same,Activity,[7],Dose-Dependent Effect
same,IC50,[7],264 µM
same,Activity,[8],Dose-Dependent Effect
same,IC50,[8],186 µM
same,Activity,[9],Dose-Dependent Effect
same,IC50,[9],78.5 µM
same,Activity,[10],Tde
same,Activity,[11],Tde
same,Activity,[12],Tde
same,CI,[13],0.95
same,CI,[14],0.69
same,CI,[15],0.89
same,fold change (FC),[16],2.1
same,fold change (FC),[17],2.8
same,fold change (FC),[18],2.4
same,CI,[19],0.99
same,CI,[20],0.73
same,CI,[21],0.9
same,fold change (FC),[22],1.9
same,fold change (FC),[23],3
same,fold change (FC),[24],2.7
same,Activity,[25],Dose-Dependent Effect
same,inhibition,[26],Active
same,inhibition,[27],Active
same,Activity,[28],44%
same,Activity,[29],Active
same,Activity,[30],Active
same,Activity,[31],Active
same,Activity,[32],Dose-Dependent Effect
O=C(c1ccc(OCCN2CCCCC2)cc1)c1c(-c2ccc(O)cc2)sc2cc(O)ccc12 [RALOXIFENE],IC50,[2],45.6 µM
same,IC50,[5],45 µM
same,IC50,[8],44.5 µM
CCCc1nn(C)c2c(=O)[nH]c(-c3cc(S(=O)(=O)N4CCN(C)CC4)ccc3OCC)nc12 [SILDENAFIL],IC50,[2],> 500 µM
same,IC50,[5],> 500 µM
same,IC50,[8],> 500 µM
CN1CC(=O)N2[C@H](c3ccc4c(c3)OCO4)c3[nH]c4ccccc4c3C[C@@H]2C1=O [TADALAFIL],Activity,[1],Dose-Dependent Effect
same,IC50,[1],354 µM
same,Activity,[2],Dose-Dependent Effect
same,IC50,[2],106 µM
same,Activity,[3],Dose-Dependent Effect
same,IC50,[3],73.9 µM
same,Activity,[4],Dose-Dependent Effect
same,IC50,[4],359 µM
same,Activity,[5],Dose-Dependent Effect
same,IC50,[5],274 µM
same,Activity,[6],Dose-Dependent Effect
same,IC50,[6],127 µM
same,Activity,[7],Dose-Dependent Effect
same,IC50,[7],876 µM
same,Activity,[8],Dose-Dependent Effect
same,IC50,[8],281 µM
same,Activity,[9],Dose-Dependent Effect
same,IC50,[9],243 µM
same,Activity,[10],Tde
same,Activity,[11],Tde
same,Activity,[12],Tde
same,CI,[33],0.92
same,CI,[34],0.78
same,CI,[35],0.89
same,fold change (FC),[36],2.1
same,fold change (FC),[37],2.6
same,fold change (FC),[38],2
same,CI,[39],0.98
same,CI,[40],0.44
same,CI,[41],0.89
same,fold change (FC),[42],1.9
same,fold change (FC),[43],5.2
same,fold change (FC),[44],2.1
same,Activity,[25],Dose-Dependent Effect
same,inhibition,[45],Active
same,inhibition,[46],Active
same,Activity,[47],22.2%
same,Activity,[48],Active
same,Activity,[30],Active
same,Activity,[31],Active
same,Activity,[32],Dose-Dependent Effect
